Seven compounds from patent US20260049072A1, “HETEROCYCLIC COMPOUND FOR INDUCING DEGRADATION OF MUTANT KRAS PROTEIN” (Astellas Pharma Inc., priority 2022, published 2026) can be followed below.

One assay has as its target T1, RAS G12D (Homo sapiens, UniProt P01116, G12D).
T1 construct: host or cells: AsPC-1 human pancreatic cancer cells
Nature of the assay: RAS G12D degradation activity, Cell ELISA, AsPC-1. The conditions noted are these: AsPC-1 cells, 24 hours; read-out: DC50 (RAS G12D 50% degradation value). The assay is classed as cell-based. Here is the method:
Test Example 1-2: Evaluation of RAS G12D Degradation Activity on Human KRAS G12D Mutant-Positive Pancreatic Cancer Line AsPC-1
The RAS G12D degradation activities of subject compounds were evaluated in the same manner as in Test Example 1-1 by measuring the expression levels of RAS G12D by a Cell ELISA method.
AsPC-1 cells (ATCC, CRL-1682) were seeded at 36 μL per well on a 384-well plate to give 2.0×10^4 cells per well. As for the cell culture conditions, RPMI-1640 medium (from Sigma-Aldrich) containing 10% fetal bovine serum was used in the presence of 5% CO2 at 37° C.
The next day, the subject compounds (10 points having final concentrations in the range of 3 μM to 0.1 nM) and DMSO, which was the solvent for the subject compounds, as a negative control were diluted 100-fold with a fresh medium and were each added at 4 μL per well, followed by culturing for 24 hours.
The next day, the procedures from the immobilization of the cells to before the addition of the blocking solution were performed by the same methods as in Test Example 1-1. A blocking solution (Intercept Blocking Buffer; from LI-COR Biosciences) was added at 20 μL per well. After allowing the plate to stand for 30 minutes at room temperature, the supernatant was removed by centrifugation. A solution obtained by diluting an anti-R-actin antibody (1,000-fold dilution) with the blocking solution was added to the wells of the positive control as a primary antibody, and a solution obtained by diluting an anti-Ras (G12D Mutant Specific) antibody (Ras (G12D Mutant Specific) (D8H7) Rabbit mAb; from Cell Signaling Technology; 1,000-fold dilution) and an anti-3-actin antibody (1,000-fold dilution) with the blocking solution was added to the other wells as primary antibodies, each at 15 μL per well. The plate was allowed to stand overnight at 4° C.
The next day, the supernatant was removed by centrifugation, and the plate was washed with PBS. The supernatant was removed by centrifugation, and a solution obtained by diluting an anti-rabbit IgG antibody and an anti-mouse IgG antibody 1,000-fold with the blocking solution was added at 15 μL per well as secondary antibodies. After allowing the plate to stand at room temperature for an hour, the supernatant was removed by centrifugation, and the plate was washed with PBS. After removing the supernatant, the plate was dried as it was with air at room temperature for two hours or more, and the 700-nm and 800-nm fluorescent signals were measured with Aerius.
With the RAS G12D signaling value at the time of addition of DMSO corrected with the signaling value of β-actin taken as 0% and with the RAS G12D signaling value under the conditions of staining with the anti-β-actin antibody alone taken as 100%, the RAS G12D degradation rates were calculated. The 50% degradation values (DC50) were calculated by Sigmoid-Emax model nonlinear regression analysis.
(In an ELISA, binding on a coated surface is turned into a signal by an enzyme label.)

Another assay deals with T2, RAS G12V (Homo sapiens, UniProt P01116, G12V).
T2 construct: host or cells: PA-TU-8902 human pancreatic cancer cells
T2 sequence (P01116 1-188 isoform P01116-2 G12V): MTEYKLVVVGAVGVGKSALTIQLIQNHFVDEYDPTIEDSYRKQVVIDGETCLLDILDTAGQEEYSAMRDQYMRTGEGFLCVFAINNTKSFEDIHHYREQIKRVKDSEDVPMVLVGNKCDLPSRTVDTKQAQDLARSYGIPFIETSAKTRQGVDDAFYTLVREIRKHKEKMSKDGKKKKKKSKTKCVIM
Briefly: RAS G12V degradation activity, Cell ELISA, PA-TU-8902. It counts as cell-based. The conditions noted are these: PA-TU-8902 cells, 24 hours, 100% = Example compound 17 at 1 μM; read-out: DC50 (RAS G12V 50% degradation value). Here is the method: Test Example 1-1: Evaluation of RAS G12V Degradation Activity on Human KRAS G12V Mutant-Positive Pancreatic Cancer Line PA-TU-8902
The RAS G12V degradation activities of subject compounds were evaluated by measuring the expression levels of RAS G12V by a Cell ELISA method.
PA-TU-8902 cells (DSMZ, ACC 179) were seeded at 36 μL per well on a 384-well plate (from Greiner bio-one) to give 1.5×10^4 cells per well. As for the cell culture conditions, DMEM medium (from Sigma-Aldrich) containing 10% fetal bovine serum (from Cytiva) was used in the presence of 5% CO2 at 37° C.
The next day, the subject compounds (10 points having final concentrations in the range of 3 μM to 0.1 nM), Example compound 17 of a final concentration of 1 μM as a positive control and dimethyl sulfoxide (DMSO), which was the solvent for the subject compounds, as a negative control were diluted 100-fold with a fresh medium and were each added at 4 μL per well, followed by culturing for 24 hours.
The next day, the culture supernatant was removed, and a 4% paraformaldehyde phosphate buffer solution (from FUJIFILM Wako) was added at 20 μL per well. The plate was allowed to stand for 30 minutes at room temperature to thus immobilize the cells. Then, the supernatant was removed, and 0.1% Triton X-100 (from Amersham Biosciences)-containing Phosphate buffered saline (PBS) was added at 20 μL per well. After allowing the plate to stand at room temperature for 10 minutes, the supernatant was removed, and the wells were washed twice in total by adding PBS at 25 μL per well and removing the supernatant. The washing operations below were performed in the same manner. Next, the supernatant was removed, and 0.5% sodium dodecyl sulfate (SDS; from ThermoFisher Scientific)-containing PBS was added at 20 μL per well. After allowing the plate to stand at room temperature for 10 minutes, the plate was centrifuged to remove the supernatant. After washing with PBS, the supernatant was removed by centrifugation, and a blocking solution (PVDF Blocking Reagent for Can Get Signal; from TOYOBO) was added at 20 μL per well. After allowing the plate to stand for 30 minutes at room temperature, the supernatant was removed by centrifugation, and a solution obtained by diluting an anti-Ras (G12V Mutant Specific) antibody (Ras (G12V Mutant Specific) (D2H12) Rabbit mAb; from Cell Signaling Technology; 500-fold dilution) and an anti-3-actin antibody (Anti-beta Actin antibody; from Abcam; 5,000-fold dilution) with Can Get Signal Solution 2 (from TOYOBO) was added at 15 μL per well as primary antibodies. The plate was allowed to stand overnight at 4° C.
The next day, the supernatant was removed by centrifugation, and the plate was washed with PBS. The supernatant was removed by centrifugation, and a solution obtained by diluting an anti-rabbit IgG antibody (IRDye 800CW Goat anti-Rabbit IgG; from LI-COR Biosciences) and an anti-mouse IgG antibody (IRDye 680RD Donkey anti-Mouse IgG; from LI-COR Biosciences) 1,000-fold with Can Get Signal Solution 2 was added at 15 μL per well as secondary antibodies. After allowing the plate to stand at room temperature for an hour, the supernatant was removed by centrifugation, and the plate was washed with PBS. After removing the supernatant, the plate was dried as it was with air at room temperature for two hours or more, and the 700-nm and 800-nm fluorescent signals were measured with Aerius (from LI-COR Biosciences).
With the RAS G12V signaling value at the time of addition of DMSO corrected with the signaling value of 3-actin taken as 0% and with the RAS G12V signaling value at the time of addition of Example compound 17 of a final concentration of 1 μM taken as 100%, the RAS G12V degradation rates were calculated. The 50% degradation values (DC50) were calculated by Sigmoid-Emax model nonlinear regression analysis.

T1 sequence (P01116 1-188 isoform P01116-2 G12D): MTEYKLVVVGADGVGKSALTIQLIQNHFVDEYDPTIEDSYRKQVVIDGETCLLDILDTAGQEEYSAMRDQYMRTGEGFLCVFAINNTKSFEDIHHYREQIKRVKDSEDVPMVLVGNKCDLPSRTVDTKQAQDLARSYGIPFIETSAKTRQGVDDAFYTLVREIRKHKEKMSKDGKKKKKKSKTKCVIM

For `CO[C@@H](C)COc1cc(OC2CN(C(=O)N3CC(CN(C)C)C3)C2)c2cc(C3CC3)c(-c3c(C)c(F)cc4[nH]ncc34)c(OCc3ccc(-c4cn([C@H](C(=O)N5C[C@H](O)C[C@H]5C(=O)N[C@@H](CO)c5ccc(-c6scnc6C)cc5)C(C)C)nn4)cc3)c2n1` (atropisomer, axis not shown; (M)) [Example 14, (4R)-1-[(2S)-2-(4-{4-[({(7M)-6-cyclopropyl-4-[(1-{3-[(dimethylamino)methyl]azetidine-1-carbonyl}azetidin-3-yl)oxy]-7-(6-fluoro-5-methyl-1H-indazol-4-yl)-2-[(2S)-2-methoxypropoxy]quinolin-8-yl}oxy)methyl]phenyl}-1H-1,2,3-triazol-1-yl)-3-methylbutanoyl]-4-hydroxy-N-{(1R)-2-hydroxy-1-[4-(4-methyl-1,3-thiazol-5-yl)phenyl]ethyl}-L-prolinamide], the DC50 (usually the concentration at which degradation of the target reaches its halfway point) turned out to be 2 nM at RAS G12D and 10 nM at RAS G12V.
As to `CO[C@@H](C)COc1nc(NC2CN(C(=O)O[C@H]3C[C@@H](N(C)C)C3)C2)c2cc(C3CC3)c(-c3c(C)c(F)cc4[nH]ncc34)c(OCc3ccc(-c4cn([C@H](C(=O)N5C[C@H](O)C[C@H]5C(=O)N[C@@H](CO)c5ccc(-c6ocnc6C)cc5)C(C)C)nn4)cc3)c2n1` (atropisomer, axis not shown; (M)) [Example 1, (1s,3R)-3-(dimethylamino)cyclobutyl 3-({(7M)-6-cyclopropyl-7-(6-fluoro-5-methyl-1H-indazol-4-yl)-8-{[4-(1-{(2S)-1-[(2S,4R)-4-hydroxy-2-({(1R)-2-hydroxy-1-[4-(4-methyl-1,3-oxazol-5-yl)phenyl]ethyl}carbamoyl)pyrrolidin-1-yl]-3-methyl-1-oxobutan-2-yl}-1H-1,2,3-triazol-4-yl)phenyl]methoxy}-2-[(2S)-2-methoxypropoxy]quinazolin-4-yl}amino)azetidine-1-carboxylate], the DC50 turned out to be 5 nM at RAS G12D and 31 nM at RAS G12V.
Taken in the same sequence, the figures for `CO[C@@H](C)COc1cc(OC2CN(C(=O)C3CN(C)C3)C2)c2cc(C3CC3)c(-c3c(C)c(F)cc4[nH]ncc34)c(OCc3ccc(-c4cn([C@H](C(=O)N5C[C@H](O)C[C@H]5C(=O)N[C@@H](CO)c5ccc(-n6cncn6)cc5)C(C)C)nn4)cc3)c2n1` (atropisomer, axis not shown) [Example 42] were 6 nM and 30 nM.
For the compound `Cc1ncsc1-c1ccc([C@H](CO)NC(=O)[C@@H]2C[C@@H](O)CN2C(=O)[C@H](C(C)C)n2cc(-c3ccc(COc4c(-c5c(C)c(F)cc6[nH]ncc56)c(C5CC5)cc5c(N6CC[C@H]6C(N)=O)nc(OC6CCOCC6)nc45)cc3)nn2)cc1` [Example 35], the DC50 on RAS G12D worked out at 16 nM; at RAS G12V, 23 nM.
On to `CO[C@@H](C)COc1cc(OC2CN(C(=O)N3CC(CN(C)C)C3)C2)c2cc(C3CC3)c(-c3c(C)c(F)cc4[nH]ncc34)c(OCc3ccc(-c4cn([C@H](C(=O)N5C[C@H](O)C[C@H]5C(=O)N[C@@H](CO)c5ccc(-c6ocnc6C)cc5)C(C)C)nn4)cc3)c2n1` (atropisomer, axis not shown; (M)) [Example 6, (4R)-1-[(2S)-2-(4-{4-[({(7M)-6-cyclopropyl-4-[(1-{3-[(dimethylamino)methyl]azetidine-1-carbonyl}azetidin-3-yl)oxy]-7-(6-fluoro-5-methyl-1H-indazol-4-yl)-2-[(2S)-2-methoxypropoxy]quinolin-8-yl}oxy)methyl]phenyl}-1H-1,2,3-triazol-1-yl)-3-methylbutanoyl]-4-hydroxy-N-{(1R)-2-hydroxy-1-[4-(4-methyl-1,3-oxazol-5-yl)phenyl]ethyl}-L-prolinamide], for which the 50% degradation concentration (DC50) came to 5 nM on RAS G12D and 22 nM at RAS G12V.
For `CO[C@@H](C)COc1cc(OC2CN(C(=O)N3CC(CN(C)C)C3)C2)c2cc(C3CC3)c(-c3c(C)c(F)cc4[nH]ncc34)c(OCc3ccc(-c4cn([C@H](C(=O)N5C[C@H](O)C[C@H]5C(=O)N[C@@H](CO)c5ccc(-n6cncn6)cc5)C(C)C)nn4)cc3)c2n1` (atropisomer, axis not shown; (M)) [Example 5, (4R)-1-[(2S)-2-(4-{4-[({(7M)-6-cyclopropyl-4-[(1-{3-[(dimethylamino)methyl]azetidine-1-carbonyl}azetidin-3-yl)oxy]-7-(6-fluoro-5-methyl-1H-indazol-4-yl)-2-[(2S)-2-methoxypropoxy]quinolin-8-yl}oxy)methyl]phenyl}-1H-1,2,3-triazol-1-yl)-3-methylbutanoyl]-4-hydroxy-N-{(1R)-2-hydroxy-1-[4-(1H-1,2,4-triazol-1-yl)phenyl]ethyl}-L-prolinamide], the 50% degradation concentration (DC50) at RAS G12D was 6 nM; at RAS G12V, 26 nM.
For `CO[C@@H](C)COc1nc(NC2CN(C(=O)O[C@H]3C[C@@H](N(C)C)C3)C2)c2cc(C3CC3)c(-c3c(C)c(F)cc4[nH]ncc34)c(OCc3ccc(-c4cn([C@H](C(=O)N5C[C@H](O)C[C@H]5C(=O)N[C@@H](CO)c5ccc(-c6scnc6C)cc5)C(C)C)nn4)cc3)c2n1` (atropisomer, axis not shown; (M)) [Example 11, (1s,3R)-3-(dimethylamino)cyclobutyl 3-({(7M)-6-cyclopropyl-7-(6-fluoro-5-methyl-1H-indazol-4-yl)-8-{[4-(1-{(2S)-1-[(2S,4R)-4-hydroxy-2-({(1R)-2-hydroxy-1-[4-(4-methyl-1,3-thiazol-5-yl)phenyl]ethyl}carbamoyl)pyrrolidin-1-yl]-3-methyl-1-oxobutan-2-yl}-1H-1,2,3-triazol-4-yl)phenyl]methoxy}-2-[(2S)-2-methoxypropoxy]quinazolin-4-yl}amino)azetidine-1-carboxylate], the half-maximal degradation concentration (DC50) stood at 4 nM on RAS G12D and 13 nM on RAS G12V.
